The results in this text go back to patent US4395969A (priority 1981, dated 1983).

For series [1], the system named is brown bullhead catfish. Nature of the series: Bioassay, brown bullhead catfish. The series is classed as in vivo, Ictalurus nebulosus. The following applies: for mortality: 96 h, 140-185 mm; for mortality / time in which all bullhead catfish died: artesian well water, 10 C; for time in which all bullhead catfish died: fry 28-40 mm; for selectivity to bullhead catfish: in vivo. On the procedure: Bioassays (10 fish per concentration) were made with brown bullhead catfish fry (28-40 mm) at concentrations of 0, 2, and 4 mg/l of 2, 2-dichlorovinyldiethyl phosphate in artesian well water (load, 0.5 g/l). All the Bullhead catfish died in 12 hours at 2 mg/l and in 6 hours at 4 mg/l of the chemical at 10 C.
A second series of bioassays (10 fish per concentration) was made with larger bullhead catfish (140-185 mm) at 0.6 and 1.0 mg/l concentrations of 2, 2-dichlorovinyl diethyl phosphate in artesian well water (load, 1.0 g/l) at 10 C. In 96 hours 50% mortality occurred at 0.6 mg/l and 100% mortality at 1.0 mg/l.

For series [2], the system named is stickleback. The experiment in a line: Control of stickleback in 24-hour applications, usable concentration. The series is classed as in vivo. To be noted: for recommended safe and effective concentration: river water tests. From the text:
For field applications the concentration of the dichloro- and tetrachloro-compounds would vary with water quality--mainly with regard to water temperature and hydrogen ion concentrations. Generally, treated areas would contain water low in dissolved solids and a pH of 7 to 7.5. The activity of the chemicals would then be essentially similar to that determined in our tests using river water. For the treatment of rivers and shorelines of lakes the concentrations of the dichloro- and tetrachloro-compounds that would be used would be those that would kill stickleback or suckers in 12 to 24 hours. The information above, relating to Examples 1 and 12, substantiates improvement in fish culture by the addition of dichloroethyl or dichlorovinyl diethyl phosphate to an aqueous habitat at a concentration in water ranging between 0.1 and 10 mg/l. […] The information above, relating to Example 2, substantiates improvement in fish culture by the addition of tetrachloroethyl diethyl phosphate to an aqueous habitat at a concentration in water ranging between 4 and 80 μg/l.

Series [3] has as its system spotted sucker. Nature of the series: Exploratory bioassay, spotted sucker. The class given is in vivo, Minytrema melanops. The following applies: less than 24 h; 15 C; 31 to 38 mm. On the procedure:
Cursory bioassays were made with small numbers of other fishes and a crayfish (Pacifasticus klamathensis) to check on the universal selectivity of the toxicants. The fishes included Arctic grayling (Thymallus arcticus), longnose sucker (C. catastomus), largescale sucker, (C. macrocheilus), and spotted sucker (Minytrema melanops).
A series of five 24-hour biassays was made with the spotted sucker (2 fish per aquarium) at a concentration range of 1 mg/l to 5 mg/l of 2, 2-dichlorovinyl diethyl phosphate. The chemical killed all of the spotted suckers (31 to 38 mm) at 1 mg/l in less than 24 hours at 15 C.

As usually defined, the mortality is the share of the test organisms that died. Read a high mortality as fewer survivors. Consider `CCOP(=O)(OC=C(Cl)Cl)OCC` [2,2-dichlorovinyl diethyl phosphate], for which the mortality in series [1] (0.6 mg/l) was found to be 50%; in series [1] (1.0 mg/l), 100%. In addition, the figures for the “time in which all bullhead catfish died” value in series [1] (2 mg/l) and in series [1] (4 mg/l) were 12 h and 6 h, respectively. Further, the “selectivity to bullhead catfish” value is “specific for the carp and bullhead catfish” in series [1]; “slightly more selective to bullhead than to stickleback” in series [1] (listed as dichloro-compound). The “recommended safe and effective concentration” value in series [2] (10 C) stood at 5 mg/L; in series [2] (15 C) it was 3 mg/L. Besides, the “concentrations for control (upper: greater than)” value in series [2] (Kamloops, 10 C, 24 h or less, river water) was 4-4 mg/l. The “concentration that killed all of the spotted suckers” value in series [3] came to 1 mg/L.
